Measured values from article PMC5522529, “Mechanisms of Paradoxical Activation of AMPK by the Kinase Inhibitors SU6656 and Sorafenib” (Cell Chemical Biology, 2017).

What was measured:
mice = tested on: mice; set-up: method as in Yamada et al., 2010; conditions: ref Yamada et al., 2010; cited from earlier work
AMPK [1] = test: AMPK activity in HeLa cells stably expressing LKB1; type: cell-based, human; conditions: HeLa cells expressing LKB1, 100 μM, 1 hr
Protocol: Figure 1 SU6656 Activates AMPK but Not AMPK-Related Kinases (A) HEK293 cells were incubated with the indicated concentrations of SU6656 or berberine (300 μM) for 1 hr; total AMPK activity was assayed in immunoprecipitates (top; mean ± SEM, n = 4), and phosphorylation of AMPK (Thr172), ACC (Ser80), and Raptor (Ser792) analyzed by western blotting (bottom; n = 2). (B) HEK293 cells were incubated with 100 μM SU6656 (1 hr), AMPK complexes containing α1, α2, β1, and β2 immunoprecipitated using isoform-specific antibodies, and AMPK activity measured (mean ± SEM, n = 4). (C) HeLa cells stably expressing LKB1 ([Fogarty et al., 2010]) were incubated with 100 μM SU6656 for 1 hr, AMPK or individual ARKs immunoprecipitated, and kinase assays carried out (antibodies that distinguish MARK2/MARK3 were not available, so they were assayed together). Results are means ± SEM (n = 2). In all panels, asterisks indicate significant differences from controls without SU6656. *p < 0.05, **p < 0.01, ****p < 0.0001. […]

[2] = molecular target: T1, AMPK-γ1 R299G (RG) complexes (Homo sapiens, UniProt P54619, R299G); test: Activation by LKB1 of FLAG-AMPK-γ1 R299G (RG) complexes precipitated from HeLa cells; type: biochemical; conditions: RG mutant γ1; AMP 200 μM or SU6656 3 μM, 10 min
T1 construct: Plasmid encoding full-length human AMPK-γ1; expressed in transfected cells; host or cells: HeLa
T1 sequence (P54619 whole entry R299G, one chain of several): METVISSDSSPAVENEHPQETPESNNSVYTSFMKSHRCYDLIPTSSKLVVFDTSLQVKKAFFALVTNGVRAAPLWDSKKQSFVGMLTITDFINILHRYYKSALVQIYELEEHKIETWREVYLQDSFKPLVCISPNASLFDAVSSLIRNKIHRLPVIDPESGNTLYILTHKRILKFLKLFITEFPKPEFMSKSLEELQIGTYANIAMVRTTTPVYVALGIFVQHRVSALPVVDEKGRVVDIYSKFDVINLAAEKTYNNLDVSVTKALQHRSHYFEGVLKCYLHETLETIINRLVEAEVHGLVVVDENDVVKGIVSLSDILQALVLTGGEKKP
Text: (§1) (B) Effect of ATP concentration on kinase activity of α2-KD in the presence of increasing concentrations of SU6656. Results (mean, n = 2) were fitted to the equation Y= (Vmax × X)/(Km × (1 + I/Ki) + X), where Y is the activity, X is the ATP concentration, I is the concentration of SU6656, and Ki is the inhibitory constant for SU6656. […] (D and E) Effect of increasing concentrations of SU6656 on activity (D) and Thr172 phosphorylation (E) induced by LKB1 with unphosphorylated α2-KD (WT/AT mutant). Results in (D) are mean ± SEM (n = 3); and were fitted to same equation as Figure 4C. […] See also Figure S3. (F) Effect of AMP (2 mM) and SU6656 on inactivation of AMPK by PP2Cα in the presence of 5 mM ATP. […] (G) Effects of AMP or SU6656 on activation (top) and Thr172 phosphorylation (bottom) by LKB1 of AMPK-γ1 complexes expressed in HeLa cells. FLAG-tagged AMPK-γ1, either wild-type (WT) or R299G mutant (RG), was expressed in HeLa cells and AMPK complexes precipitated using anti-FLAG antibody. The complexes (which have low basal phosphorylation due to lack of LKB1 in HeLa cells) were incubated with or without a limiting amount of LKB1, AMP (200 μM) or SU6656 (3 μM) for 10 min and AMPK activity determined. […]

AMPK [3] = tested on: AMPK; set-up: method as in Bain et al., 2007; conditions: ref Bain et al., 2007; cited from earlier work
AMPK-γ1 complexes (WT) = molecular target: T2, AMPK-γ1 complexes (WT) (Homo sapiens, UniProt P54619); test: Activation by LKB1 of FLAG-AMPK-γ1 (WT) complexes precipitated from HeLa cells; type: biochemical; conditions: AMP 200 μM or SU6656 3 μM, 10 min
T2 construct: Plasmid encoding full-length human AMPK-γ1; expressed in transfected cells; host or cells: HeLa
T2 sequence (P54619 whole entry, one chain of several): as the sequence (P54619 whole entry R299G, one chain of several) above, with G299R counted along it
Text: as §1

α2-KD = molecular target: T3, α2-KD (Homo sapiens, UniProt P54646); test: Activation and phosphorylation of unphosphorylated α2-KD (WT) by LKB1; type: biochemical
T3 construct: amplifying residues 1-310 with 5' BamH1 and 3' Xho1 sites; made in house; host or cells: bacteria
T3 sequence (P54646 1-310): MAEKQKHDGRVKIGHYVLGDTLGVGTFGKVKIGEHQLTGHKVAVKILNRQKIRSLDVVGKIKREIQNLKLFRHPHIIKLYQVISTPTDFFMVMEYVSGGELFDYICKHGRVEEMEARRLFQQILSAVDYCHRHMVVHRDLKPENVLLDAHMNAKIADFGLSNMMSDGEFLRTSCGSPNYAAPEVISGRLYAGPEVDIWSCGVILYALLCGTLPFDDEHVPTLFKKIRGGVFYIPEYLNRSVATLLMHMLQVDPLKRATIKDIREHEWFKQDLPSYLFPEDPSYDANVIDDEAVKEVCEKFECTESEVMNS
Text: (§2) (B) Effect of ATP concentration on kinase activity of α2-KD in the presence of increasing concentrations of SU6656. Results (mean, n = 2) were fitted to the equation Y= (Vmax × X)/(Km × (1 + I/Ki) + X), where Y is the activity, X is the ATP concentration, I is the concentration of SU6656, and Ki is the inhibitory constant for SU6656. […] (D and E) Effect of increasing concentrations of SU6656 on activity (D) and Thr172 phosphorylation (E) induced by LKB1 with unphosphorylated α2-KD (WT/AT mutant). Results in (D) are mean ± SEM (n = 3); and were fitted to same equation as Figure 4C. […] See also Figure S3. (F) Effect of AMP (2 mM) and SU6656 on inactivation of AMPK by PP2Cα in the presence of 5 mM ATP. […] (G) Effects of AMP or SU6656 on activation (top) and Thr172 phosphorylation (bottom) by LKB1 of AMPK-γ1 complexes expressed in HeLa cells. FLAG-tagged AMPK-γ1, either wild-type (WT) or R299G mutant (RG), was expressed in HeLa cells and AMPK complexes precipitated using anti-FLAG antibody. The complexes (which have low basal phosphorylation due to lack of LKB1 in HeLa cells) were incubated with or without a limiting amount of LKB1, AMP (200 μM) or SU6656 (3 μM) for 10 min and AMPK activity determined.
(§3) We next used unphosphorylated α2-KD and tested the effect of SU6656 on its activation and phosphorylation by LKB1.

α2-KD A156T (AT) mutant = molecular target: T4, α2-KD A156T (AT) mutant (Homo sapiens, UniProt P54646, A156T); test: Activation and phosphorylation of unphosphorylated α2-KD AT mutant by LKB1; type: biochemical
T4 construct: amplifying residues 1-310 with 5' BamH1 and 3' Xho1 sites; made in house; host or cells: bacteria
T4 sequence (P54646 1-310 A156T): as the sequence (P54646 1-310) above, with A156T counted along it
Text: as §2, §3

activation and Thr172 phosphorylation by LKB1 [2]: preserved | activation of α2-KD by LKB1 (α2-KD; SU6656 up to 10 μM): 1.9 ± 0.2 fold | Kd (α2-KD; read-out: half-maximal effect on α2-KD activation by LKB1): 200 ± 20 nM | EC50 (α2-KD A156T (AT) mutant): 70 nM | activation of α2-KD by LKB1 (α2-KD A156T (AT) mutant): 1.07 fold
SMILES: CN(C)S(=O)(=O)c1ccc2c(c1)/C(=C/c1cc3c([nH]1)CCCC3)C(=O)N2 [SU6656]
fatty acid oxidation (mice): increased fatty acid oxidation | AMPK activity (AMPK [1]): robustly activated AMPK | inhibition of AMPK relative to Src (AMPK [3]): inhibits AMPK as effectively as Src | activation and Thr172 phosphorylation by LKB1 (AMPK-γ1 complexes (WT)): promoted activation and increased Thr172 phosphorylation
